Assays:
Oppioid µ = Oppioid µ (Homo sapiens, UniProt P35372); assay: CNS receptor binding assay, opioid µ; conditions: MAP4343 10 µM; [^3H] DAMGO; Human recombinant (HEK-293 cells); read-out: % Inhibition of control specific binding
Experimental: (§1) MAP4343 has been screened for in vitro affinity to 80 different CNS neurotransmitters receptors using various validated binding assays.
(§2) Table 4. In vitro affinity of MAP4343 (10 µM) for CNS neurotransmitter receptors associated with side effects and/or abuse liability. Data are the average of two individual assays for each receptor and are expressed as % inhibition of the control specific binding of the reference compound. Results showing an inhibition higher than 50% are considered to represent significant effects of the test compound.

Wistar (WI) rats = assay: Forced swimming test (FST), WI rats; format: in vivo, rat; conditions: dose-ranging, Fig. 6A
Experimental: 3B-methoxy-PREG (also referred to as "MAP4343" in Example 4) was dissolved in sesame oil by sonication using a Sonifer-450 (Branson Ultrasonics Corporation, Danbury, USA) during 1 cycle of 5 pulses in sesame oil. Fluoxetine (Biotrend, Köln, Germany) and Ketamine (Sigma-Aldrich, St-Quentin Fallvier, France) were dissolved in sterile saline solution (NaCl 0.9%). The drug formulations were prepared freshly each day of treatment. MAP4343 was administered subcutaneously (ranging of 1-15 mg/Kg/day) while fluoxetine and ketamine were injected intraperitonealy (10 mg/Kg/day and 30 mg/Kg/day, respectively).
Rats were submitted to the forced swimming test (FST), according the procedure initially described by (Detke et al., 1995) and slightly modified by (Bianchi et al., 2002). Briefly, rats were individually placed into a Plexiglas cylinder (40 cm height, 20 cm diameter) containing 25 cm of water at 25 ± 1°C, under 50 lux illumination. After a pre-test session of 15 min, rats were removed, dried and returned to its housed cage. […] The pre-test and test sessions were recorded using a video camera placed above the cylinder for subsequent behavioral analysis. The immobility time (in sec) was blindly measured by two independent experimenters from recorded videos. […]
The effects of a dose-ranging administration of MAP4343 were tested in WI and WKY rats on their immobility time measured in FST.

Oppioid δ2 = Oppioid δ2 (Homo sapiens, UniProt P41143); assay: CNS receptor binding assay, opioid δ2; conditions: MAP4343 10 µM; [^3H] DADLE; Human recombinant (CHO cells); read-out: % Inhibition of control specific binding
Oppioid δ2, sequence (P41143 whole entry): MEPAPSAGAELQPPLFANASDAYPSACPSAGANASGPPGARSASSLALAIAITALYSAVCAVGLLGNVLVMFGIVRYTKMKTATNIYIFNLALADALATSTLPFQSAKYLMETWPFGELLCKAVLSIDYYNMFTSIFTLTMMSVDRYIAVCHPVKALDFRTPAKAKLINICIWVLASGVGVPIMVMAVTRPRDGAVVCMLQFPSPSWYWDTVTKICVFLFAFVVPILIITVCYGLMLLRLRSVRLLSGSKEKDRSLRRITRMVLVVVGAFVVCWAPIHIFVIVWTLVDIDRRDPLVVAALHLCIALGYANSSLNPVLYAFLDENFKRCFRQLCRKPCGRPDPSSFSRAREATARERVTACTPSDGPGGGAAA
Experimental: as §1, §2

Serotoninergic 5-HT2C = Serotoninergic 5-HT2C (Homo sapiens, UniProt P28335); assay: CNS receptor binding assay, 5-HT2C; conditions: MAP4343 10 µM; [^3H] mesulergine; Human recombinant (CHO cells); read-out: % Inhibition of control specific binding
Serotoninergic 5-HT2C, sequence (P28335 33-458): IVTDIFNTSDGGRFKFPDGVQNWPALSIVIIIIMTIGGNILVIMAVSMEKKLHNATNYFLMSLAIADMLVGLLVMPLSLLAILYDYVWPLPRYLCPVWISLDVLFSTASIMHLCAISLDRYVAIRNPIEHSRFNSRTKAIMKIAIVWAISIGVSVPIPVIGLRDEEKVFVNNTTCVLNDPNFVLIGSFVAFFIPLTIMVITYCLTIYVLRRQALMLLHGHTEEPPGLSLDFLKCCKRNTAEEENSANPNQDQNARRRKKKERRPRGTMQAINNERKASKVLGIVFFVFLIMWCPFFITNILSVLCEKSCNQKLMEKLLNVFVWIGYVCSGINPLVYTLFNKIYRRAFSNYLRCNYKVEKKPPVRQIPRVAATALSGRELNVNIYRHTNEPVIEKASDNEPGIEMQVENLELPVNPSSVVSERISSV
Experimental: as §1, §2

[1] = molecular target: T1, Mineralocorticoid Receptor (MR) (Rattus norvegicus, UniProt P22199); assay: Radioligand binding assay, steroid hormone receptor MR; conditions: MAP4343 10 µM; 4.5 nM [^3H] D-Aldosterone; Wistar Rat kidney
T1 construct: Wistar Rat kidney; from tissue; host or cells: Wistar rat kidney
T1 sequence (P22199 whole entry): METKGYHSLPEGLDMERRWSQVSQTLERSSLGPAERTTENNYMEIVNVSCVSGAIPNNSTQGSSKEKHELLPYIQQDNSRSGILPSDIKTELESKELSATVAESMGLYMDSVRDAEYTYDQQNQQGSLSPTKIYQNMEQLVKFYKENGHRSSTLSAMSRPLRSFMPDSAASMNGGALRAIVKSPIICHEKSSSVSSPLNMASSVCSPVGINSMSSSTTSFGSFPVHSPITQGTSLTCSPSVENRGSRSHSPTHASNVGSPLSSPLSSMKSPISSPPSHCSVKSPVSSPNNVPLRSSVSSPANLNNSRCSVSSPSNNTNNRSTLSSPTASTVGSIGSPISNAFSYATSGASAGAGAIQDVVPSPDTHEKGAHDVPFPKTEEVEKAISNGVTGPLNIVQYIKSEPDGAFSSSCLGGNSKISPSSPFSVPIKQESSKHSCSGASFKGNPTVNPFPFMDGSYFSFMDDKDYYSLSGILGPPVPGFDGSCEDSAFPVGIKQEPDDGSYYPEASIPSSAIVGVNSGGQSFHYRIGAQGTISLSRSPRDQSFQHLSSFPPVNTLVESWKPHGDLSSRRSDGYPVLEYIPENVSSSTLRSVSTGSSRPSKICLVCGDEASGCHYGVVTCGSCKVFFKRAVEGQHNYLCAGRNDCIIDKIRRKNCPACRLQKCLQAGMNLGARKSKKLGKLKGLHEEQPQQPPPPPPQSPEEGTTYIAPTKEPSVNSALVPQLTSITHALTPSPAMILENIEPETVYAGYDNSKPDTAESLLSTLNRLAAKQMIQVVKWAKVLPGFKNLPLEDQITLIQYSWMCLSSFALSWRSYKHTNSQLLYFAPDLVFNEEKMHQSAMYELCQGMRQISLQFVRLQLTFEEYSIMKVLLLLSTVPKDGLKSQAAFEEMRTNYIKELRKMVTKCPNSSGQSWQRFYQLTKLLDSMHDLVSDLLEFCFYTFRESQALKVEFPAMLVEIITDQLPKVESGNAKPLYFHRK
Experimental: Binding affinity of 3β-methoxy-PREG (MAP4343) for receptors of steroid hormones was evaluated using radioligand binding assays.
Table 3. Affinity of MAP4343 (10 µM) for steroid hormones receptors measured by radioligand binding assays. […] None of the results met significance criteria at concentrations used.

Dopaminergic D1 = Dopaminergic D1 (Homo sapiens, UniProt P21728); assay: CNS receptor binding assay, D1; conditions: MAP4343 10 µM; [^3H] SCH 23390; Human recombinant (CHO cells); read-out: % Inhibition of control specific binding
Dopaminergic D1, sequence (P21728 whole entry): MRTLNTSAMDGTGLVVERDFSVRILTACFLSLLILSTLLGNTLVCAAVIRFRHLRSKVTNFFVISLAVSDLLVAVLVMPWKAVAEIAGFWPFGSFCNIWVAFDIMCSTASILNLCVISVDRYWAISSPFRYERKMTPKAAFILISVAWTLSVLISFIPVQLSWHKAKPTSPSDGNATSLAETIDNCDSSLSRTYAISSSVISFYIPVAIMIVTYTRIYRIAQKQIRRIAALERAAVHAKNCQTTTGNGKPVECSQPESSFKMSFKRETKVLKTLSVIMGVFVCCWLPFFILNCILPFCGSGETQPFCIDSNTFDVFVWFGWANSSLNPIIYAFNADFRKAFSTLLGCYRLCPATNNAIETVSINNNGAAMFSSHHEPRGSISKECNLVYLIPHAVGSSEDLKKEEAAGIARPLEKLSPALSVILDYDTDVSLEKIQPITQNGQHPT
Experimental: as §1, §2

Wistar Kyoto (WKY) rats = assay: Locomotor activity in the open-field arena, WKY rats; format: in vivo, rat; conditions: acute, MAP4343 10 mg/kg s.c., fluoxetine 10 mg/kg i.p., ketamine 30 mg/kg i.p., 3 min, Fig. 5A
Experimental: After a 6-day period of acclimatization, all experimental groups received daily successive subcutaneous (250 µl per rat) and intraperitoneal (1 ml/kg) injections. WI rats received injection of vehicle (sesame oil + saline) while WKY rats were randomly assigned to […], as follow: KWY rats receiving only vehicle (sesame oil + saline) and WKY rats treated with MAP4343 (10 mg/kg, s.c.; rats received in parallel i.p. injections of saline), fluoxetine (10 mg/kg i.p., rats received in parallel s.c. injections of sesame oil) or ketamine (30 mg/kg, i.p.; rats received in parallel s.c. injections of sesame oil) (see Figure 3).
After, a 6-day period of acclimatization, the acute phase of treatment started for 4 days during behavioral tests were performed (Figure 3). All animals were injected 1h30 before the starting of behavioral test.
The animals were individually placed in the open field arena (OFA) (70 x 100 x 70 cm), with a central square (35 x 50 cm), located in a 50 lux illuminated room and videotaped during 3 min using a computerized system (VideoTrack V2.5, ViewPoint, Lyon, France).
OFA allows firstly the evaluation of total locomotor activity (LMA) thereby measuring the total distance travelled in the arena (in cm). Secondly, measurements of the activity in the center of the arena like (i) the number of entries in the center of arena and (ii) the total time spent in the center of arena (in sec) provide cues of anxiety-like behavior (Prut and Belzung, 2003). All these behavioral parameters were instantaneously measured automatically with the VideoTrack V2.5 software from the videos.

Serotoninergic 5-HT2B = Serotoninergic 5-HT2B (Homo sapiens, UniProt P41595); assay: CNS receptor binding assay, 5-HT2B; conditions: MAP4343 10 µM; [^125I] (±) DOI; Human recombinant (CHO cells); read-out: % Inhibition of control specific binding
Serotoninergic 5-HT2B, sequence (P41595 whole entry): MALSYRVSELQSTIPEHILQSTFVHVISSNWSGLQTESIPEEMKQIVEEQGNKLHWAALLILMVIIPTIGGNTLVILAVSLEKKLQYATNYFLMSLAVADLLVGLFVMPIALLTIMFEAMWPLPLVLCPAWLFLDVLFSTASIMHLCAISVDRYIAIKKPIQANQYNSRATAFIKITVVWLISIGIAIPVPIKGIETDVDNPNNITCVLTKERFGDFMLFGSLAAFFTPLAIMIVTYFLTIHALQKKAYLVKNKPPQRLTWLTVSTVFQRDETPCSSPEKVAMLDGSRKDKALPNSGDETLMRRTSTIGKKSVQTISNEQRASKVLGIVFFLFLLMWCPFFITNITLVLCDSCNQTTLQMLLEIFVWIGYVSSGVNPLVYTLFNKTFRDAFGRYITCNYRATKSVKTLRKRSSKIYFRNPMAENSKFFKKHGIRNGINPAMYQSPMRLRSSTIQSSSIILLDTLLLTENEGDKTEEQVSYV
Experimental: as §1, §2

Serotoninergic 5-HT1B = Serotoninergic 5-HT1B (Rattus norvegicus, UniProt P28564); assay: CNS receptor binding assay, 5-HT1B; conditions: MAP4343 10 µM; [^125I] CYP + (-) propranolol; rat cerebral cortex; read-out: % Inhibition of control specific binding
Serotoninergic 5-HT1B, sequence (P28564 whole entry): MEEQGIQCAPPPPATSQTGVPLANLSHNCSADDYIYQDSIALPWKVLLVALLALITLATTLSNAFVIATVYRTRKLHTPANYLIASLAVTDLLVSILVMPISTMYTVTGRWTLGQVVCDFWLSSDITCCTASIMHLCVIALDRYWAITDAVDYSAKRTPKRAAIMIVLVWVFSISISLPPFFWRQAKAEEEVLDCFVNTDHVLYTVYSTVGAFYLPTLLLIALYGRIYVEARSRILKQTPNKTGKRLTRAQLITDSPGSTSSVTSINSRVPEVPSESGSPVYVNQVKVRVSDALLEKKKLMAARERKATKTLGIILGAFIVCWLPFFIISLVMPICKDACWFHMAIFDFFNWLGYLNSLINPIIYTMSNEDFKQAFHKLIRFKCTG
Experimental: as §1, §2

Serotoninergic 5-HT5A = Serotoninergic 5-HT5A (Homo sapiens, UniProt P47898); assay: CNS receptor binding assay, 5-HT5A; conditions: MAP4343 10 µM; [^3H] LSD; Human recombinant (CHO cells); read-out: % Inhibition of control specific binding
Serotoninergic 5-HT5A, sequence (P47898 whole entry): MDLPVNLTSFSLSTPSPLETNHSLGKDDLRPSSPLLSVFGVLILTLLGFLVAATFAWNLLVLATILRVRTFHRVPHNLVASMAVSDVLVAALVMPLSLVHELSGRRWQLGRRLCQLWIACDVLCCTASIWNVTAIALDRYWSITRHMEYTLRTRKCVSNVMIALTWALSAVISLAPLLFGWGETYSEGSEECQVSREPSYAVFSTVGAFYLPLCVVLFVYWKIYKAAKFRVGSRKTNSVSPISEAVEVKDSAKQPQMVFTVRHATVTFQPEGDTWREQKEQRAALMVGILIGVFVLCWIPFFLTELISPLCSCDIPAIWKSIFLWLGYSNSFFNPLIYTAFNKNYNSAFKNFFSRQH
Experimental: as §1, §2

[2] = molecular target: T2, Muscarinic (Cholinergic) M1 (Homo sapiens, UniProt P11229); assay: CNS receptor binding assay, M1; conditions: MAP4343 10 µM; [^3H] pirenzepine; Human recombinant (CHO cells); read-out: % Inhibition of control specific binding
T2 construct: expressed in transfected cells; host or cells: CHO cells
T2 sequence (P11229 whole entry): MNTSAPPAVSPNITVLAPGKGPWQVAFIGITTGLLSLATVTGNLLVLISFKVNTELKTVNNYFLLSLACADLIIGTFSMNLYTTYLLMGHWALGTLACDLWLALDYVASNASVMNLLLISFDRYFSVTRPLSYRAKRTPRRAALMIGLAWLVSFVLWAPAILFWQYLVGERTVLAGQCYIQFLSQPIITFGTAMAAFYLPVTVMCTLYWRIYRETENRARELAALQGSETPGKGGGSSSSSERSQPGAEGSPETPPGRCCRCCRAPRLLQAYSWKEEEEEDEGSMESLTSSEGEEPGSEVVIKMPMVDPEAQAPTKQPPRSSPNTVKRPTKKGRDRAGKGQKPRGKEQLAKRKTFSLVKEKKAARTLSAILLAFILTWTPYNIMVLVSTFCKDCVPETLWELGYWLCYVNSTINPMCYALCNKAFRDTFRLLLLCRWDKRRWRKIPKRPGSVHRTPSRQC
Experimental: as §1, §2

Oppioid µ, sequence (P35372 whole entry): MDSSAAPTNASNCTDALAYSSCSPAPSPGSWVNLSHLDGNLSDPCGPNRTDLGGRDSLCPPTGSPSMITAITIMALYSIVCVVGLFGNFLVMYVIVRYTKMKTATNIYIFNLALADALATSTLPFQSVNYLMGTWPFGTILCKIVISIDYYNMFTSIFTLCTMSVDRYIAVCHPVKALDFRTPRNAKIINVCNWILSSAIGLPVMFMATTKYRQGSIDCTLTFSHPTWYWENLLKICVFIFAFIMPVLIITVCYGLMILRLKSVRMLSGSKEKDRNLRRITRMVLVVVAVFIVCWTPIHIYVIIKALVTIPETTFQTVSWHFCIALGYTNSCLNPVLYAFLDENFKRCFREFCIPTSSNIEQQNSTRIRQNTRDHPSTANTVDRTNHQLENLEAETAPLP

In the case of `CO[C@H]1CC[C@@]2(C)C(=CC[C@H]3[C@@H]4CC[C@H](C(C)=O)[C@@]4(C)CC[C@@H]32)C1` (stereo in doubt) [MAP4343, 3β-methoxy-pregna-5-ene-20-one], the inhibition at 10 µM (Oppioid µ) is reported as 0%, the “immobility time measured in FST, change as compared to WI receiving vehicle alone” value (Wistar (WI) rats; MAP4343 10 mg/kg) is reported as -27% and the “immobility time measured in FST, change as compared to WI receiving vehicle alone” value (Wistar (WI) rats; MAP4343 15 mg/kg) is reported as -31%. For the same compound, the inhibition at 10 µM (Oppioid δ2) was -3%, the inhibition at 10 µM (Serotoninergic 5-HT2C) was 7% and the “% inhibition” value [1] was 25%. The inhibition at 10 µM [1] was < 25%, the inhibition at 10 µM (Dopaminergic D1) was 2% and the “locomotor activity (total distance travelled in the open-field arena), change as compared to WKY receiving vehicle” value (Wistar Kyoto (WKY) rats) was “did not modify significantly”. It also gave an inhibition at 10 µM (Serotoninergic 5-HT2B) of -4%, an inhibition at 10 µM (Serotoninergic 5-HT1B) of 4% and an inhibition at 10 µM (Serotoninergic 5-HT5A) of -5%. The inhibition at 10 µM [2] was -3%.
